Test results reported in US9833497B2, “Human originated EGF domain proteins and use of the same” (CHENGDU SOURCEBIO LIMITED-LIABILITY COMPANY, priority 2013, dated 2017).

Key:
Format in all cases: cell-based
E. coli DH5α = experiment: Antibacterial activity: MIC and growth curve against E. coli DH5α in 96-well plate; details: minimal inhibitory concentration against E. coli DH5α; 96-well plate, 5×10^5 CFU/mL, 37° C., judged after 8 h
Outline: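 Log-phase bacteria (OD600 ~0.5) resuspended in LB at 5×10^5 CFU/mL, exposed to recombinant protein at 50, 25, 12.5 μg/mL final in triplicate, 37 °C shaking at 175 rpm. OD600 read every 30 min; MIC is lowest concentration showing no growth.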

E. coli BL21 = experiment: MIC against Gram-negative bacteria: E. coli BL21; details: for MIC E. coli BL21: two-fold serial dilution
Outline: (§1)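 MIC, the lowest recombinant protein concentration giving no bacterial growth, found by two-fold serial dilution of human EGF-domain proteins in triplicate. Inoculum 5×10^5 CFU/mL in LB from cultures at McFarland 0.5; plates incubated at 37° C, 175 rpm shaking.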

Pseudomonas aeruginosa = experiment: MIC against Gram-negative bacteria: Pseudomonas aeruginosa; details: for MIC P. aeruginosa: two-fold serial dilution
Outline: as §1

Klebsiella pneumonia = experiment: MIC against Gram-negative bacteria: Klebsiella pneumonia; details: for MIC K. pneumonia: two-fold serial dilution
Outline: as §1

Enterobacter cloacae = experiment: MIC against Gram-negative bacteria: Enterobacter cloacae; details: for MIC E. cloacae: two-fold serial dilution
Outline: as §1

Aeromonas hydrophila = experiment: MIC against Gram-negative bacteria: Aeromonas hydrophila; details: for MIC A. hydrophila: two-fold serial dilution
Outline: as §1

Citrobacter diversus = experiment: MIC against Gram-negative bacteria: Citrobacter diversus; details: for MIC C. diversus: two-fold serial dilution
Outline: as §1

Moraxella catarrhalis = experiment: MIC against Gram-negative bacteria: Moraxella catarrhalis; details: for MIC M. catarrhalis: two-fold serial dilution
Outline: as §1

Proteus mirabilis = experiment: MIC against Gram-negative bacteria: Proteus mirabilis; details: for MIC P. mirabilis: two-fold serial dilution
Outline: as §1

Proteus vulgaris = experiment: MIC against Gram-negative bacteria: Proteus vulgaris; details: for MIC P. vulgaris: two-fold serial dilution
Outline: as §1

Serratia marcescens = experiment: MIC against Gram-negative bacteria: Serratia marcescens; details: for MIC S. marcescens: two-fold serial dilution
Outline: as §1

[1] = 96-well plate, 5×10^5 CFU/mL, 37° C., 10 h
[2] = 10 h cultivation at 37° C., 5×10^5 CFU/mL
[3] = E. coli BL21, 96-well plate, 5×10^5 CFU/mL, 37° C., 10 h
[4] = Pseudomonas aeruginosa, 96-well plate, 5×10^5 CFU/mL, 37° C., 10 h
[5] = Klebsiella pneumonia, 96-well plate, 5×10^5 CFU/mL, 37° C., 10 h
[6] = Enterobacter cloacae, 96-well plate, 5×10^5 CFU/mL, 37° C., 10 h
[7] = Aeromonas hydrophila, 96-well plate, 5×10^5 CFU/mL, 37° C., 10 h
[8] = Citrobacter diversus, 96-well plate, 5×10^5 CFU/mL, 37° C., 10 h
[9] = Moraxella catarrhalis, 96-well plate, 5×10^5 CFU/mL, 37° C., 10 h
[10] = Proteus mirabilis, 96-well plate, 5×10^5 CFU/mL, 37° C., 10 h
[11] = Proteus vulgaris, 96-well plate, 5×10^5 CFU/mL, 37° C., 10 h
[12] = Serratia marcescens, 96-well plate, 5×10^5 CFU/mL, 37° C., 10 h

## PRT591 (CACDPHNSLSPQCNQFTGQCPCREGFGGLMCSAAAIRQCPDRTYGDVATGCRA; listed as Homo sapiens)
E. coli DH5α
  MIC: 25 µg/mL
E. coli BL21; [1]
  MIC against E. coli BL21: 50 µg/mL
Pseudomonas aeruginosa; [1]
  MIC against P. aeruginosa: 25 µg/mL
Klebsiella pneumonia; [1]
  MIC against K. pneumonia: 12.5 µg/mL
Enterobacter cloacae; [1]
  MIC against E. cloacae: 25 µg/mL
Aeromonas hydrophila; [1]
  MIC against A. hydrophila: 50 µg/mL
Citrobacter diversus; [1]
  MIC against C. diversus: 12.5 µg/mL
Moraxella catarrhalis; [1]
  MIC against M. catarrhalis: 50 µg/mL
Proteus mirabilis; [1]
  MIC against P. mirabilis: 12.5 µg/mL
Proteus vulgaris; [1]
  MIC against P. vulgaris: 50 µg/mL
Serratia marcescens; [1]
  MIC against S. marcescens: 12.5 µg/mL

## PRT958 (DVDECSIGANPCEHLGRCVNTQGSFLCQCGRGYTGPRCE; listed as Homo sapiens)
E. coli DH5α
  MIC: 50 µg/mL
E. coli BL21; E. coli BL21, 10 h cultivation at 37° C.
  MIC: 12.5 µg/mL
Pseudomonas aeruginosa; P. aeruginosa, 10 h cultivation at 37° C.
  MIC: 25 µg/mL
Klebsiella pneumonia; K. pneumonia, 10 h cultivation at 37° C.
  MIC: 50 µg/mL
Enterobacter cloacae; E. cloacae, 10 h cultivation at 37° C.
  MIC: 25 µg/mL
Aeromonas hydrophila; A. hydrophila, 10 h cultivation at 37° C.
  MIC: 25 µg/mL
Citrobacter diversus; C. diversus, 10 h cultivation at 37° C.
  MIC: 12.5 µg/mL
Moraxella catarrhalis; M. catarrhalis, 10 h cultivation at 37° C.
  MIC: 50 µg/mL
Proteus mirabilis; P. mirabilis, 10 h cultivation at 37° C.
  MIC: 25 µg/mL
Proteus vulgaris; P. vulgaris, 10 h cultivation at 37° C.
  MIC: 12.5 µg/mL
Serratia marcescens; S. marcescens, 10 h cultivation at 37° C.
  MIC: 25 µg/mL

## PRT1047 (SNTCTCKNGGTCLPENGNCVCAPGFRGPSCQ; listed as Homo sapiens)
E. coli DH5α
  MIC: 50 µg/mL
E. coli BL21; [2]
  MIC E. coli BL21: 50 µg/mL
Pseudomonas aeruginosa; [2]
  MIC P. aeruginosa: 25 µg/mL
Klebsiella pneumonia; [2]
  MIC K. pneumonia: 50 µg/mL
Enterobacter cloacae; [2]
  MIC E. cloacae: 25 µg/mL
Aeromonas hydrophila; [2]
  MIC A. hydrophila: 12.5 µg/mL
Citrobacter diversus; [2]
  MIC C. diversus: 50 µg/mL
Moraxella catarrhalis; [2]
  MIC M. catarrhalis: 12.5 µg/mL
Proteus mirabilis; [2]
  MIC P. mirabilis: 12.5 µg/mL
Proteus vulgaris; [2]
  MIC P. vulgaris: 12.5 µg/mL
Serratia marcescens; [2]
  MIC S. marcescens: 12.5 µg/mL

## PRT469 (NCSTTCFNGGTCFYPGKCICPPGLEGEQCE; listed as Homo sapiens)
E. coli DH5α
  MIC: 12.5 µg/mL
E. coli BL21; [1]
  MIC against E. coli BL21: 25 µg/mL
Pseudomonas aeruginosa; [1]
  MIC against P. aeruginosa: 12.5 µg/mL
Klebsiella pneumonia; [1]
  MIC against K. pneumonia: 25 µg/mL
Enterobacter cloacae; [1]
  MIC against E. cloacae: 50 µg/mL
Aeromonas hydrophila; [1]
  MIC against A. hydrophila: 25 µg/mL
Citrobacter diversus; [1]
  MIC against C. diversus: 12.5 µg/mL
Moraxella catarrhalis; [1]
  MIC against M. catarrhalis: 50 µg/mL
Proteus mirabilis; [1]
  MIC against P. mirabilis: 12.5 µg/mL
Proteus vulgaris; [1]
  MIC against P. vulgaris: 50 µg/mL
Serratia marcescens; [1]
  MIC against S. marcescens: 12.5 µg/mL

## PRT470 (KCPQPCRNGGKCIGKSKCKCSKGYQGDLCS; listed as Homo sapiens)
E. coli DH5α
  MIC: 50 µg/mL
E. coli BL21; [1]
  MIC against E. coli BL21: 12.5 µg/mL
Pseudomonas aeruginosa; [1]
  MIC against P. aeruginosa: 50 µg/mL
Klebsiella pneumonia; [1]
  MIC against K. pneumonia: 12.5 µg/mL
Enterobacter cloacae; [1]
  MIC against E. cloacae: 50 µg/mL
Aeromonas hydrophila; [1]
  MIC against A. hydrophila: 25 µg/mL
Citrobacter diversus; [1]
  MIC against C. diversus: 12.5 µg/mL
Moraxella catarrhalis; [1]
  MIC against M. catarrhalis: 25 µg/mL
Proteus mirabilis; [1]
  MIC against P. mirabilis: 50 µg/mL
Proteus vulgaris; [1]
  MIC against P. vulgaris: 12.5 µg/mL
Serratia marcescens; [1]
  MIC against S. marcescens: 50 µg/mL

## PRT509 (CNCSTVGSLDFQCNVNTGQCNCHPKFSGAKCTECSRGHWNYPRCNL; listed as Homo sapiens)
E. coli DH5α
  MIC: 12.5 µg/mL
E. coli BL21; [1]
  MIC against E. coli BL21: 25 µg/mL
Pseudomonas aeruginosa; [1]
  MIC against P. aeruginosa: 12.5 µg/mL
Klebsiella pneumonia; [1]
  MIC against K. pneumonia: 25 µg/mL
Enterobacter cloacae; [1]
  MIC against E. cloacae: 12.5 µg/mL
Aeromonas hydrophila; [1]
  MIC against A. hydrophila: 12.5 µg/mL
Citrobacter diversus; [1]
  MIC against C. diversus: 12.5 µg/mL
Moraxella catarrhalis; [1]
  MIC against M. catarrhalis: 12.5 µg/mL
Proteus mirabilis; [1]
  MIC against P. mirabilis: 12.5 µg/mL
Proteus vulgaris; [1]
  MIC against P. vulgaris: 12.5 µg/mL
Serratia marcescens; [1]
  MIC against S. marcescens: 25 µg/mL

## PRT1104 (EVDECASDPCKNEATCLNEIGRYTCICPHNYSGVNCE; listed as Homo sapiens)
E. coli DH5α
  MIC: 50 µg/mL
E. coli BL21; [2]
  MIC E. coli BL21: 12.5 µg/mL
Pseudomonas aeruginosa; [2]
  MIC P. aeruginosa: 50 µg/mL
Klebsiella pneumonia; [2]
  MIC K. pneumonia: 12.5 µg/mL
Enterobacter cloacae; [2]
  MIC E. cloacae: 25 µg/mL
Aeromonas hydrophila; [2]
  MIC A. hydrophila: 50 µg/mL
Citrobacter diversus; [2]
  MIC C. diversus: 25 µg/mL
Moraxella catarrhalis; [2]
  MIC M. catarrhalis: 12.5 µg/mL
Proteus mirabilis; [2]
  MIC P. mirabilis: 25 µg/mL
Proteus vulgaris; [2]
  MIC P. vulgaris: 50 µg/mL
Serratia marcescens; [2]
  MIC S. marcescens: 25 µg/mL

## PRT1444 (HHIPCPEHYNGFCMHGKCEHSINMQEPSCRCDAGYTGQHCE; listed as Homo sapiens)
E. coli DH5α
  MIC: 12.5 µg/mL
E. coli BL21; E. coli BL21, 5×10^5 CFU/mL, 10 h cultivation at 37° C.
  MIC against E. coli BL21: 25 µg/mL
Pseudomonas aeruginosa; Pseudomonas aeruginosa, 5×10^5 CFU/mL, 10 h cultivation at 37° C.
  MIC against P. aeruginosa: 50 µg/mL
Klebsiella pneumonia; Klebsiella pneumonia, 5×10^5 CFU/mL, 10 h cultivation at 37° C.
  MIC against K. pneumonia: 25 µg/mL
Enterobacter cloacae; Enterobacter cloacae, 5×10^5 CFU/mL, 10 h cultivation at 37° C.
  MIC against E. cloacae: 12.5 µg/mL
Aeromonas hydrophila; Aeromonas hydrophila, 5×10^5 CFU/mL, 10 h cultivation at 37° C.
  MIC against A. hydrophila: 25 µg/mL
Citrobacter diversus; Citrobacter diversus, 5×10^5 CFU/mL, 10 h cultivation at 37° C.
  MIC against C. diversus: 50 µg/mL
Moraxella catarrhalis; Moraxella catarrhalis, 5×10^5 CFU/mL, 10 h cultivation at 37° C.
  MIC against M. catarrhalis: 12.5 µg/mL
Proteus mirabilis; Proteus mirabilis, 5×10^5 CFU/mL, 10 h cultivation at 37° C.
  MIC against P. mirabilis: 25 µg/mL
Proteus vulgaris; Proteus vulgaris, 5×10^5 CFU/mL, 10 h cultivation at 37° C.
  MIC against P. vulgaris: 50 µg/mL
Serratia marcescens; Serratia marcescens, 5×10^5 CFU/mL, 10 h cultivation at 37° C.
  MIC against S. marcescens: 25 µg/mL

## PRT37 (IGVDCSDGFNGGCEQLCLQQMAPFPDDPTLYNILMFCGCIEDYKLGVDGRSCQ; listed as Homo sapiens)
E. coli DH5α
  MIC: 25 µg/mL
E. coli BL21; [3]
  MIC (μg/mL) E. coli BL21: 50 µg/mL
Pseudomonas aeruginosa; [4]
  MIC (μg/mL) P. aeruginosa: 25 µg/mL
Klebsiella pneumonia; [5]
  MIC (μg/mL) K. pneumonia: 25 µg/mL
Enterobacter cloacae; [6]
  MIC (μg/mL) E. cloacae: 12.5 µg/mL
Aeromonas hydrophila; [7]
  MIC (μg/mL) A. hydrophila: 12.5 µg/mL
Citrobacter diversus; [8]
  MIC (μg/mL) C. diversus: 25 µg/mL
Moraxella catarrhalis; [9]
  MIC (μg/mL) M. catarrhalis: 12.5 µg/mL
Proteus mirabilis; [10]
  MIC (μg/mL) P. mirabilis: 12.5 µg/mL
Proteus vulgaris; [11]
  MIC (μg/mL) P. vulgaris: 25 µg/mL
Serratia marcescens; [12]
  MIC (μg/mL) S. marcescens: 12.5 µg/mL

## PRT1209 (ATEDCASNPCQNGGVCNPSPAGGYYCKCSALYIGTHCE; listed as Homo sapiens)
E. coli DH5α
  MIC: 50 µg/mL
E. coli BL21; [3]
  MIC against E. coli BL21: 12.5 µg/mL
Pseudomonas aeruginosa; [4]
  MIC against P. aeruginosa: 25 µg/mL
Klebsiella pneumonia; [5]
  MIC against K. pneumonia: 50 µg/mL
Enterobacter cloacae; [6]
  MIC against E. cloacae: 25 µg/mL
Aeromonas hydrophila; [7]
  MIC against A. hydrophila: 12.5 µg/mL
Citrobacter diversus; [8]
  MIC against C. diversus: 25 µg/mL
Moraxella catarrhalis; [9]
  MIC against M. catarrhalis: 12.5 µg/mL
Proteus mirabilis; [10]
  MIC against P. mirabilis: 12.5 µg/mL
Proteus vulgaris; [11]
  MIC against P. vulgaris: 25 µg/mL
Serratia marcescens; [12]
  MIC against S. marcescens: 12.5 µg/mL
